Experimental data: patent publication US20240269139A1, “COMPOUNDS FOR TARGETED PROTEIN DEGRADATION OF KINASES” (DANA-FARBER CANCER INSTITUTE, INC., priority 2020, published 2024)
Read-outs that look alike come from different tables or passages of the source.

What was measured:
Type in all cases: cell-based
[1] = molecular target: protein kinases (human kinome) (Homo sapiens, UniProt Q15120); details: experiment wp160, 1 hr
[2] = molecular target: T1, protein kinases (human kinome) (Homo sapiens, UniProt Q96S38); details: for logFC RPS6KC1 (Q96S38): direction of change down; for logFC: RPS6KC1 (Q96S38)
T1 sequence (Q96S38 1-1066): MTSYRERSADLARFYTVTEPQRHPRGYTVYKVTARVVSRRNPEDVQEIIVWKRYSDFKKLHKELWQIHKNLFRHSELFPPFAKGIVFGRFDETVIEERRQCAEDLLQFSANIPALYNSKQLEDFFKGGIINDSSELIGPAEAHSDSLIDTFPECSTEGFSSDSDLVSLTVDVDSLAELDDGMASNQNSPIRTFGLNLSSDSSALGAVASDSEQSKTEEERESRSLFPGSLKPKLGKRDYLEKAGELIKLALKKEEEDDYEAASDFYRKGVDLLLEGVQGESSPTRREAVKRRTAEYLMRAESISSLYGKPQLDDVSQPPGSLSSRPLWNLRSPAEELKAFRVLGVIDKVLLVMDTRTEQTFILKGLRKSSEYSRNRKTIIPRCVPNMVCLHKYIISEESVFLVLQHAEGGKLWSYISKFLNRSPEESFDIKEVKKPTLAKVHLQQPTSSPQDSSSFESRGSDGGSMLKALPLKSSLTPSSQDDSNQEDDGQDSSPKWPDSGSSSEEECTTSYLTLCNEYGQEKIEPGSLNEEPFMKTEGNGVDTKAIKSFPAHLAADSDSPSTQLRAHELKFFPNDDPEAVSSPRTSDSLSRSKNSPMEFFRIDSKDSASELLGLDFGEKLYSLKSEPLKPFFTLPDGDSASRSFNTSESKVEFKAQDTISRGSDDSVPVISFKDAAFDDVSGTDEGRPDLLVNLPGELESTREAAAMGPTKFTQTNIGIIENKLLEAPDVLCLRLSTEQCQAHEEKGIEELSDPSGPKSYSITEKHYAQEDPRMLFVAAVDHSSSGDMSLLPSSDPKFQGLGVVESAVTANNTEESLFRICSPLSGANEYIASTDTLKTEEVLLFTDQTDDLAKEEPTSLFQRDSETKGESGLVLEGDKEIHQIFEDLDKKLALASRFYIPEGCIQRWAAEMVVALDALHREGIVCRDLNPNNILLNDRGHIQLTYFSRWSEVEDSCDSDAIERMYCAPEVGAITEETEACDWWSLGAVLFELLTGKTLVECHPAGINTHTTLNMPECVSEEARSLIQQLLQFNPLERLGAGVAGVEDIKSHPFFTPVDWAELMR

[3] = molecular target: protein kinases (human kinome) (Homo sapiens, UniProt Q86Z02); details: experiment wp133, 4 hr
[4] = molecular target: protein kinases (human kinome) (Homo sapiens, UniProt P54753)
protein kinases (human kinome) (Homo sapiens, UniProt P54753), sequence (P54753 34-998): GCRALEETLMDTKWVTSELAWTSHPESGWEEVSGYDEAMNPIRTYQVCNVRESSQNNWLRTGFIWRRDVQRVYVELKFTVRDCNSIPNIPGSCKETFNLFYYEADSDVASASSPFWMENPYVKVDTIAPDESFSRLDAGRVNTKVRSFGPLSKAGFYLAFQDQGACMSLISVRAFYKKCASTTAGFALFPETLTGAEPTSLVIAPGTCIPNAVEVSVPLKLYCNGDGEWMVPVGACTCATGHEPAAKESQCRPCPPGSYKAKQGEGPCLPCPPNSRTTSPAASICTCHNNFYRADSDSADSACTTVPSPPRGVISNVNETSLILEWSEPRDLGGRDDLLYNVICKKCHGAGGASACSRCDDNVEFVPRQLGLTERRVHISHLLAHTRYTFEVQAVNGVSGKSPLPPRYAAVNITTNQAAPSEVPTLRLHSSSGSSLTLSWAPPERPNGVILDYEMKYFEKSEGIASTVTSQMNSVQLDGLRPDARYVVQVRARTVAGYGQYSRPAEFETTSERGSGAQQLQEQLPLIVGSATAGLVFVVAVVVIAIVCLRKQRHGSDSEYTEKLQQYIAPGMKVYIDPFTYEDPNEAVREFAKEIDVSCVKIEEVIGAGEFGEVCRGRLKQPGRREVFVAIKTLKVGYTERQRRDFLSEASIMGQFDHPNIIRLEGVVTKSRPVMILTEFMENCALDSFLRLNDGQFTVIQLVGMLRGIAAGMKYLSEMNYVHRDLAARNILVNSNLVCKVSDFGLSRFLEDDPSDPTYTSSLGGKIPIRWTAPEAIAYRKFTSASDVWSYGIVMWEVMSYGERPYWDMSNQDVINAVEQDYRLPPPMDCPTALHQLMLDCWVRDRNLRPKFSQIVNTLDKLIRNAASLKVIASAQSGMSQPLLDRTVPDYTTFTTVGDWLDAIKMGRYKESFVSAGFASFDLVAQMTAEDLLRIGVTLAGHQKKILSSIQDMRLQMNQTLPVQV

[5] = molecular target: protein kinases (human kinome) (Homo sapiens, UniProt Q14680); details: experiment wp131
protein kinases (human kinome) (Homo sapiens, UniProt Q14680), sequence (Q14680 whole entry): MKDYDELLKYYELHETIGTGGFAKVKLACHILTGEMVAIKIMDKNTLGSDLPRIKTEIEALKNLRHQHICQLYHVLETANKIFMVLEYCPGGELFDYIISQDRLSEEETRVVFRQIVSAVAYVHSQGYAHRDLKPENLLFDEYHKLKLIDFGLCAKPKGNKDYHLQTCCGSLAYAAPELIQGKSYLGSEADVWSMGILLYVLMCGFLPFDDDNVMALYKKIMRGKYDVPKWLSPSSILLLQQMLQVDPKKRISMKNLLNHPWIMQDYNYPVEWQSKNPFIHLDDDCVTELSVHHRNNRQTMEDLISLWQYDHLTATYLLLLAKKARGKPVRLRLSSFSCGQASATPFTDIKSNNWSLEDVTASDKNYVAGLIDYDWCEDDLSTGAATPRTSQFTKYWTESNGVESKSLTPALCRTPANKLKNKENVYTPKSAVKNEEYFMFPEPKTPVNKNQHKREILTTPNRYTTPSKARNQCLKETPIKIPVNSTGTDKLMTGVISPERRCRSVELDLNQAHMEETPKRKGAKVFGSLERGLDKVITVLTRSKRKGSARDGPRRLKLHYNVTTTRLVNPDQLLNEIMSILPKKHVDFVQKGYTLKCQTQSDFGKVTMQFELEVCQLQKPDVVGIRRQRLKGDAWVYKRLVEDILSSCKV

[6] = molecular target: protein kinases (human kinome) (Homo sapiens, UniProt P49841)
protein kinases (human kinome) (Homo sapiens, UniProt P49841), sequence (P49841 whole entry): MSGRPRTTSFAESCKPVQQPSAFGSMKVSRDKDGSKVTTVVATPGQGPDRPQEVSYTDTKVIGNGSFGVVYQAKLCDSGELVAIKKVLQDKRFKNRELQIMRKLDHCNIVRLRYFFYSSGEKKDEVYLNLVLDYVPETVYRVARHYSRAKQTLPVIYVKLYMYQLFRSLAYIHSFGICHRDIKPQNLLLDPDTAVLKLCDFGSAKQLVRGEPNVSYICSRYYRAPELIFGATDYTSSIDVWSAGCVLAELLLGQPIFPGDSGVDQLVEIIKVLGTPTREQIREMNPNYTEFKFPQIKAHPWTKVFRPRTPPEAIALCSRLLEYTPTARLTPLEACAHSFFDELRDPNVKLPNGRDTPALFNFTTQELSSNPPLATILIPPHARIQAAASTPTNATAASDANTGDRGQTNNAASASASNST

[7] = molecular target: protein kinases (human kinome) (Homo sapiens, UniProt Q16877); details: PFKFB4 (Q16877); experiment wp080
protein kinases (human kinome) (Homo sapiens, UniProt Q16877), sequence (Q16877 whole entry): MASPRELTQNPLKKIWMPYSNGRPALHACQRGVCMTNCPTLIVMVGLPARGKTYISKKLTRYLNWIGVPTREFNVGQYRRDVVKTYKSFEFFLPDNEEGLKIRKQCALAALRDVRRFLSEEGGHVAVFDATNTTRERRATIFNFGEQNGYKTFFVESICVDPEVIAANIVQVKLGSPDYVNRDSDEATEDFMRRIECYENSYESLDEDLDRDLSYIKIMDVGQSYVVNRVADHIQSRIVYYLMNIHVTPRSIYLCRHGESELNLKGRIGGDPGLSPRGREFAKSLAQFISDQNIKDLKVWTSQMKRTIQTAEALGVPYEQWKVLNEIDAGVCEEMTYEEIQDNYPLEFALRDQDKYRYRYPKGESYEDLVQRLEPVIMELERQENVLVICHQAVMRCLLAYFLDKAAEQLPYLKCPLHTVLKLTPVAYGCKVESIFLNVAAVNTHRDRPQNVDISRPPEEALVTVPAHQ

[8] = molecular target: protein kinases (human kinome) (Homo sapiens, UniProt Q9P2K8); details: experiment wp080
protein kinases (human kinome) (Homo sapiens, UniProt Q9P2K8), sequence (Q9P2K8 whole entry): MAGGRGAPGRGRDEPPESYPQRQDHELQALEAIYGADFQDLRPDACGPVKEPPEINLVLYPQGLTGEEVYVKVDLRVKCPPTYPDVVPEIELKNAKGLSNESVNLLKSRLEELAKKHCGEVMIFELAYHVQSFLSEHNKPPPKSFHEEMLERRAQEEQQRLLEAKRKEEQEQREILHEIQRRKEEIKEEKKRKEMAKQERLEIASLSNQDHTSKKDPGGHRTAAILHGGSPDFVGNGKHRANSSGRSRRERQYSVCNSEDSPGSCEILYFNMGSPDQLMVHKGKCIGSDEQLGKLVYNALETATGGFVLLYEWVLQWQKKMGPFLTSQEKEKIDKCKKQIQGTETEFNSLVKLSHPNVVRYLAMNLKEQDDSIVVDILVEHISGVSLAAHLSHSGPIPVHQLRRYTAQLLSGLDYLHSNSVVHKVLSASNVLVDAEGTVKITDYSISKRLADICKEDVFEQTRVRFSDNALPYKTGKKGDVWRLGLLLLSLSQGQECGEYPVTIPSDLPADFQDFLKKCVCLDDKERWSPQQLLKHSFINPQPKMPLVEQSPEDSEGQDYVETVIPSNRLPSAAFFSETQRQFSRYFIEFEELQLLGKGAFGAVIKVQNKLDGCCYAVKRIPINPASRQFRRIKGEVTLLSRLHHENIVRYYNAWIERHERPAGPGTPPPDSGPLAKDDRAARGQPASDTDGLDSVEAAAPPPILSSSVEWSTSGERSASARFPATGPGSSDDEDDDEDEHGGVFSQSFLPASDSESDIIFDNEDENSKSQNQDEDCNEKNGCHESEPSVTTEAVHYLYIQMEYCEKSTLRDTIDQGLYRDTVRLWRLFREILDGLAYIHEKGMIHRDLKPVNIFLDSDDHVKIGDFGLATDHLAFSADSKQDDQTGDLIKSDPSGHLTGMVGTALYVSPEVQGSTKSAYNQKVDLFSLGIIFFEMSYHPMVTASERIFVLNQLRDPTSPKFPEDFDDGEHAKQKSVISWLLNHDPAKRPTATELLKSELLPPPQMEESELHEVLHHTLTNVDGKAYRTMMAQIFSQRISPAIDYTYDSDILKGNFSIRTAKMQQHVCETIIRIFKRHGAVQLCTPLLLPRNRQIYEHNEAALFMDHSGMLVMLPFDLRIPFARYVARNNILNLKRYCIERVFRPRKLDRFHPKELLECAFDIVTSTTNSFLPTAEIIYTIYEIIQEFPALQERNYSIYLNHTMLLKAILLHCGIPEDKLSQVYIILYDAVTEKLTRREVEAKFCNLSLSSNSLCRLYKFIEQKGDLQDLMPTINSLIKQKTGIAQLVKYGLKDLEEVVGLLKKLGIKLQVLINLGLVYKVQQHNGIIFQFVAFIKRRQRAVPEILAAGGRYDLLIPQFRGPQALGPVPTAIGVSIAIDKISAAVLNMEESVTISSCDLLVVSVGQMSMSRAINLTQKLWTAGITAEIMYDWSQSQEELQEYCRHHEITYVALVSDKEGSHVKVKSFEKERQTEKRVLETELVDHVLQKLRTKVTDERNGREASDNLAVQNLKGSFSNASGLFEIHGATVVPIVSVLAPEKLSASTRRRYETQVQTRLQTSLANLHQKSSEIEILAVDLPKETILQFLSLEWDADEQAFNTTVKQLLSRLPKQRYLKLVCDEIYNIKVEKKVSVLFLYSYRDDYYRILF

protein kinases (human kinome) (Homo sapiens, UniProt Q15120), sequence (Q15120 whole entry): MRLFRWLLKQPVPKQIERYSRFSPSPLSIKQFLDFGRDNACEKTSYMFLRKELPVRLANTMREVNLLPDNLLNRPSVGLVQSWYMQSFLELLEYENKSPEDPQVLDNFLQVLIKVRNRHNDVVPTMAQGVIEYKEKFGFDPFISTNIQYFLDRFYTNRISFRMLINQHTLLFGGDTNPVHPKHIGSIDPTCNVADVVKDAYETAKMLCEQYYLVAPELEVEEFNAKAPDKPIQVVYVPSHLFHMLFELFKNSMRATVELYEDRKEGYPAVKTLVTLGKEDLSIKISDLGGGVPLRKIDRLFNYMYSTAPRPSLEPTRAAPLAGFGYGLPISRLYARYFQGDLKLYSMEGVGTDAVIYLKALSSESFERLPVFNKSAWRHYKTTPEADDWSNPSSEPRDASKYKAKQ

CC(C)S(=O)(=O)c1ccccc1Nc1nc(Nc2ccc(N3CCN(CCOCCNC(=O)CNc4cccc5c4C(=O)N(C4CCC(=O)NC4=O)C5=O)CC3)cc2)ncc1Cl (centres unmarked) [SK.3.91]
logFC PDK3 (Q15120-1) [1]: −0.9801
logFC of PDK3 (Q15120-1) [1]: −0.9801
logFC RPS6KC1 (Q96S38) ([2]; Experiment wp105): −0.3327
logFC ([2]; experiment wp105): −0.3327
logFC ([2]; experiment wp107): −0.3623
logFC RPS6KC1 (Q96S38) ([2]; experiment wp107): −0.3623
logFC HIPK1 (Q86Z02) ([3]; direction of change down): −0.4009
logFC HIPK1 ([3]; protein HIPK1 (Q86Z02), down): −0.4009

Cc1ccc(NC(=O)c2cccc(C(F)(F)F)c2)cc1N1Cc2cnc(Nc3ccc(N4CCN(Cc5cn(CCCCCOc6cccc7c6C(=O)N(C6CCC(=O)NC6=O)C7=O)nn5)CC4)nc3)nc2N(C)C1=O (centres unmarked) [DB0646, N-(3-(7-((6-(4-((1-(5-((2-(2,6-Dioxopiperidin-3-yl)-1,3-dioxoisoindolin-4-yl)oxy)pentyl)-1H-1,2,3-triazol-4-yl)methyl)piperazin-1-v)pyridin-3-yl)amino)-1-methyl-2-oxo-1,4-dihydropyrimido[4,5-d]pyrimidin-3(2H)-yl)-4-methylphenyl)-3-(trifluoromethyl)benzamide]
logFC EPHB3 (P54753) ([4]; Experiment wp114, direction of change down): −0.4175
logFC EPHB3 ([4]; protein EPHB3 (P54753), experiment wp114, down): −0.4175

Cc1ncsc1-c1ccc([C@H](C)NC(=O)[C@@H]2C[C@@H](O)CN2C(=O)[C@@H](NC(=O)CCOCCOCCN2CCN(c3ccc(Nc4ncc(Cl)c(Nc5ccccc5S(=O)(=O)C(C)C)n4)cc3)CC2)C(C)(C)C)cc1 [FMF.06.098.1]
logFC MELK (Q14680) ([5]; direction of change down): −0.38
logFC MELK ([5]; protein MELK (Q14680), down): −0.38

Nc1ncc(-c2ccc(S(=O)(=O)N(CCCNC(=O)CCOCCOCCOCCOCCOCCNc3cccc4c3C(=O)N(C3CCC(=O)NC3=O)C4=O)C3CC3)cc2)cc1-c1ccc2c(c1)CCNC2=O (centres unmarked) [WH.10417.099]
logFC GSK3B ([6]; Accession P49841-1, experiment wp172, direction down): −0.8298
logFC of GSK3B (P49841-1) ([6]; Experiment wp172): −0.8298

Cc1ncsc1-c1ccc([C@H](C)NC(=O)[C@@H]2C[C@@H](O)CN2C(=O)[C@@H](NC(=O)CCCCCN2CCN(c3ccc(Nc4ncc5scc(-c6cccc(NS(C)(=O)=O)c6)c5n4)cc3)CC2)C(C)(C)C)cc1 [RSS0680, (2S,4R)-1-((S)-3,3-Dimethyl-2-(6-(4-(4-((7-(3-(methylsulfonamido)phenyl)thieno[3,2-d]pyrimidin-2-yl)amino)phenyl)piperazin-1-yl)hexanamido)butanoyl)-4-hydroxy-N—((S)-1-(4-(4-methylthiazol-5yl)phenyl)ethyl)pyrrolidine-2-carboxamide]
logFC [7]: −0.3389
logFC EIF2AK4 (Q9P2K8-1) ([8]; direction of change down): −0.3311
logFC EIF2AK4 ([8]; protein EIF2AK4 (Q9P2K8-1), down): −0.3311
